Assay results from ChEMBL document CHEMBL1130929, “Conformationally restricted analogues of nicotine and anabasine” (Bioorg Med Chem Lett, 1998).

Tests used:
Rattus norvegicus [1] = organism: Rattus norvegicus; test: In vitro ability to release dopamine from rat striatal slices; format: functional
[2] = In vitro ability to displace tritiated nicotine from rat brain binding sites, and calcium flux (c.f)
[3] = biological target: T1, Neuronal acetylcholine receptor; alpha2/beta4 (Homo sapiens, UniProt P30926+Q15822); test: (§1) Compound was evaluated for agonist activity against activated human recombinant Nicotinic acetylcholine receptor alpha2-beta4 in Xenopus Oocytes; format: functional, cell-based
[4] = biological target: T1, Neuronal acetylcholine receptor; alpha2/beta4; test: as §1; format: functional, cell-based; remark: listed apart in the source
[5] = In vitro agonist activity against activated human recombinant alpha3-beta4 neuronal acetylcholine receptors (nAChR) in Xenopus Oocytes; format: functional, cell-based
[6] = biological target: Neuronal acetylcholine receptor; alpha3/beta4 (Homo sapiens) (UniProt P30926+P32297); test: In vitro agonist activity against activated human recombinant Nicotinic acetylcholine receptor alpha3-beta4 in Xenopus Oocytes; format: functional, cell-based
[7] = biological target: T2, Neuronal acetylcholine receptor; alpha4/beta4 (Homo sapiens, UniProt P30926+P43681); test: Compound was evaluated for its agonist activity against activated human recombinant Nicotinic acetylcholine receptor alpha4-beta4 in Xenopus Oocytes; format: functional, cell-based
[8] = In vitro ability to displace tritiated nicotine from rat brain binding sites
[9] = biological target: T3, Neuronal acetylcholine receptor; alpha4/beta2 (Homo sapiens, UniProt P17787+P43681); test: Compound was evaluated for agonist activity against activated human recombinant aNicotinic acetylcholine receptor alpha4-beta2 in Xenopus Oocytes; format: functional, cell-based
[10] = biological target: T3, Neuronal acetylcholine receptor; alpha4/beta2; test: Compound was evaluated for agonist activity against activated human recombinant Nicotinic acetylcholine receptor alpha4-beta2 in Xenopus Oocytes; format: functional, cell-based
Rattus norvegicus [11] = organism: Rattus norvegicus; test: Compound was tested for its ability to release dopamine from rat striatal slices at 300 uM; format: functional
[12] = biological target: T2, Neuronal acetylcholine receptor; alpha4/beta4; test: Compound was evaluated for agonist activity against activated human recombinant Nicotinic acetylcholine receptor alpha4-beta4 in Xenopus Oocytes; format: functional, cell-based

T1 sequence (P30926 whole entry): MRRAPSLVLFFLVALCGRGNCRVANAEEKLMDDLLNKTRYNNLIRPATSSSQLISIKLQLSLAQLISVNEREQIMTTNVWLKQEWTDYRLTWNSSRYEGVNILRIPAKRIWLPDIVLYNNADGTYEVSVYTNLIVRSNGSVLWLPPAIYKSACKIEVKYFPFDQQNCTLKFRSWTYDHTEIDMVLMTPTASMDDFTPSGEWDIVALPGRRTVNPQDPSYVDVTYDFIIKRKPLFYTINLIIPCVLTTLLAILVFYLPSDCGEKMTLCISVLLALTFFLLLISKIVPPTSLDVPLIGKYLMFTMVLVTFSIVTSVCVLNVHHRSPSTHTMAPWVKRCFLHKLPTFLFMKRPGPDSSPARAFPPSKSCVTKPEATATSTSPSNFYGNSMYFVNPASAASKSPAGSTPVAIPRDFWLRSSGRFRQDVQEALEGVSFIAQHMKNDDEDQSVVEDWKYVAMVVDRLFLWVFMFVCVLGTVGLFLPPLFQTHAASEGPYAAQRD
T1 sequence (Q15822 whole entry): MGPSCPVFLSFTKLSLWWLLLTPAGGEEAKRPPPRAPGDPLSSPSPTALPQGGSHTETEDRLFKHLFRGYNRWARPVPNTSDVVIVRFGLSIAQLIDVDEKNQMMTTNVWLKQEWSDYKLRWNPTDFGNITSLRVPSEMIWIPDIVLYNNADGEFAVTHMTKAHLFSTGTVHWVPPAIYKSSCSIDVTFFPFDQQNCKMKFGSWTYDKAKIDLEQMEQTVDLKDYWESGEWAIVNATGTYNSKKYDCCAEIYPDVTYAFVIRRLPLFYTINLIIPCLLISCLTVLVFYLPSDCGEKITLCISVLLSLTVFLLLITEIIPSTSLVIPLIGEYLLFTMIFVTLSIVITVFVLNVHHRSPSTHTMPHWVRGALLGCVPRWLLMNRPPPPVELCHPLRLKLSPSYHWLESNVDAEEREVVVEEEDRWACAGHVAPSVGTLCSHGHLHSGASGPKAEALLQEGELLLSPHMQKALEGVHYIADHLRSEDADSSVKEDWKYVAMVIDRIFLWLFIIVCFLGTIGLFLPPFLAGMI
T2 sequence (P30926 whole entry): as the sequence (P30926 whole entry) above
T2 sequence (P43681 whole entry): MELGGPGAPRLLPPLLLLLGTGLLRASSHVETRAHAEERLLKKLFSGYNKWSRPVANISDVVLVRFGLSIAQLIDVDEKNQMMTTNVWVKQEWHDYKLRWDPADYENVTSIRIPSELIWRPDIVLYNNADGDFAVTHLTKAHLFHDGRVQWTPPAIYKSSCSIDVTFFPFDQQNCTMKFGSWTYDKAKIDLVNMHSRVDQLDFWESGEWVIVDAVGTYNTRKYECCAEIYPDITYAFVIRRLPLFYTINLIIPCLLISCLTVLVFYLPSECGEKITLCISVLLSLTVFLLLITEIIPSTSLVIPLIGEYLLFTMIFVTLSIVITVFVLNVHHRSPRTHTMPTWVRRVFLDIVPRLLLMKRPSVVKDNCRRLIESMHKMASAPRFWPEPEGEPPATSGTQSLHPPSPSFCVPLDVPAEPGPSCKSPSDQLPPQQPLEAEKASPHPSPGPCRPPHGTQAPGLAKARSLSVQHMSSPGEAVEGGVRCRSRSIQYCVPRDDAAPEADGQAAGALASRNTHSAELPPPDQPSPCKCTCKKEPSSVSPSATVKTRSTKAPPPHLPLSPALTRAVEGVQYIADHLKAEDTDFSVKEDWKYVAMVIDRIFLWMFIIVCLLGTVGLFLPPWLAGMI
T3 sequence (P17787 whole entry): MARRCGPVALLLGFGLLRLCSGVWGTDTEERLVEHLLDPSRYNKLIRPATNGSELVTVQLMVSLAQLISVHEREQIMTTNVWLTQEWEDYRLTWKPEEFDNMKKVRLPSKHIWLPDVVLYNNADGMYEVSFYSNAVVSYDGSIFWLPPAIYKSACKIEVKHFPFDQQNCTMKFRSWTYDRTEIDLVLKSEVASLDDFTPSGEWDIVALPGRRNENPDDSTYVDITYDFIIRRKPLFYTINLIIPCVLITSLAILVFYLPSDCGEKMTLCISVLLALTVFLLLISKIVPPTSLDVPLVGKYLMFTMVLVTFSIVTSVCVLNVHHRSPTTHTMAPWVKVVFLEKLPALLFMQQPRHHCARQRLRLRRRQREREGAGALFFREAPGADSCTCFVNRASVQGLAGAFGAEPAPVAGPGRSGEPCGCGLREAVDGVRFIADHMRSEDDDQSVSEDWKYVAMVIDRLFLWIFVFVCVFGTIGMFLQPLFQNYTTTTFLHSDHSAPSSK
T3 sequence (P43681 whole entry): as the sequence (P43681 whole entry) above

SMILES | Efficacy (Rattus norvegicus [1]) | IC50 [2] | EC50 [3] | Efficacy [4] | EC50 [5] | Efficacy [6] | EC50 [7] | IC50 [8] | EC50 [9] | Efficacy [10] | Efficacy (Rattus norvegicus [11]) | Efficacy [12]
c1cc2c(cn1)C1NCCC1CC2 (stereo not drawn) | 56% | 0.51 µM |  |  |  |  |  |  |  |  |  | 
COc1cc2c(cn1)C1NCCC1CC2 (stereo not drawn) |  |  | 87 µM | 22% | 81 µM | 5% | 32 µM | 1.9 µM | 3 µM | 8% | 73 | 44%
CN1CCC[C@H]1c1cccnc1 [NICOTINE] |  | 0.004 µM |  |  |  |  |  |  |  |  |  | 
